The term EC50 denotes the concentration giving half of the maximal effect.

Test [1] concerns the target recombinant human mGlu4 expressed in HEK293 cells (Homo sapiens (Human), UniProt Q14833). Kind of test: Ca2+ mobilization in vitro assay, mGlu4 PAM (with EC20 of L-AP4). Type of test: cell-based. To be noted: for Emax: HEK293, maximal response in % of the maximal stimulatory effect obtained with saturating concentrations of L-AP4, read-out: Eff. (%); for EC50: human mGlu4 in HEK293 cells, Ca2+ mobilization, L-AP4 at EC20, read-out: EC50 (nM) mGlu4PAM. The procedure: Determination of EC50 Values Using a Ca2+ Mobilization in vitro Assay on Recombinant Human mGlu4 Expressed in HEK293 Cells:
A monoclonal HEK-293 cell line stably transfected with a cDNA encoding for the human mGlu4 receptor was generated; for the work with mGlu4 Positive Allosteric Modulators (PAMs), a cell line with low receptor expression levels and low constitutive receptor activity was selected to allow the differentiation of agonistic versus PAM activity. Cells were cultured according to standard protocols (Freshney, 2000) in Dulbecco's Modified Eagle Medium with high glucose supplemented with 1 mM glutamine, 10% (vol/vol) heat-inactivated bovine calf serum, Penicillin/Streptomycin, 50 μg/ml hygromycin and 15 μg/ml blasticidin (all cell culture reagents and antibiotics from Invitrogen, Basel, Switzerland). • About 24 hrs before an experiment, 5×10^4 cells/well were seeded in poly-D-lysine coated, black/clear-bottomed 96-well plates. The cells were loaded with 2.5 μM Fluo-4AM in loading buffer (1×HBSS, 20 mM HEPES) for 1 hr at 37° C. and washed five times with loading buffer. The cells were transferred into a Functional Drug Screening System 7000 (Hamamatsu, Paris, France), and 11 half logarithmic serial dilutions of test compound at 37° C. were added and the cells were incubated for 10-30 min. with on-line recording of fluorescence. Following this pre-incubation step, the agonist (2S)-2-amino-4-phosphonobutanoic acid (L-AP4) was added to the cells at a concentration corresponding to EC20 with on-line recording of fluorescence; in order to account for day-to-day variations in the responsiveness of cells, the EC20 of L-AP4 was determined immediately ahead of each experiment by recording of a full dose-response curve of L-AP4.
Responses were measured as peak increase in fluorescence minus basal (i.e. fluorescence without addition of L-AP4), normalized to the maximal stimulatory effect obtained with saturating concentrations of L-AP4. Graphs were plotted with the % maximal stimulatory using XLfit, a curve fitting program that iteratively plots the data using Levenburg Marquardt algorithm. The single site competition analysis equation used was y=A+((B−A)/(1+((x/C)D))), where y is the % maximal stimulatory effect, A is the minimum y, B is the maximum y, C is the EC50, x is the log 10 of the concentration of the competing compound and D is the slope of the curve (the Hill Coefficient). From these curves the EC50 (drug concentration at which 50% of the maximal receptor activation was achieved), the Hill coefficient as well as the maximal response in % of the maximal stimulatory effect obtained with saturating concentrations of L-AP4 were calculated (see FIG. 1).
A depression of the signal observed after addition of the EC20 concentration of L-AP4 was indicative of an inhibitory activity of the test compound.

In test [2] the test system is mice treated with MPTP. To be noted: cited from earlier work.
Test [3] relates to marble burying test in mice. Particulars: reported by Addex 2010; cited from earlier work.
The test system of test [4] is EPM in mice. To be noted: reported by Addex 2010; cited from earlier work.
Test [5] has as its system EPM in rats. To be noted: cited from earlier work.
Test [6] deals with 6-OHDA rodent model of PD. To be noted: cited from earlier work.

recombinant human mGlu4 expressed in HEK293 cells, sequence (Q14833 33-912): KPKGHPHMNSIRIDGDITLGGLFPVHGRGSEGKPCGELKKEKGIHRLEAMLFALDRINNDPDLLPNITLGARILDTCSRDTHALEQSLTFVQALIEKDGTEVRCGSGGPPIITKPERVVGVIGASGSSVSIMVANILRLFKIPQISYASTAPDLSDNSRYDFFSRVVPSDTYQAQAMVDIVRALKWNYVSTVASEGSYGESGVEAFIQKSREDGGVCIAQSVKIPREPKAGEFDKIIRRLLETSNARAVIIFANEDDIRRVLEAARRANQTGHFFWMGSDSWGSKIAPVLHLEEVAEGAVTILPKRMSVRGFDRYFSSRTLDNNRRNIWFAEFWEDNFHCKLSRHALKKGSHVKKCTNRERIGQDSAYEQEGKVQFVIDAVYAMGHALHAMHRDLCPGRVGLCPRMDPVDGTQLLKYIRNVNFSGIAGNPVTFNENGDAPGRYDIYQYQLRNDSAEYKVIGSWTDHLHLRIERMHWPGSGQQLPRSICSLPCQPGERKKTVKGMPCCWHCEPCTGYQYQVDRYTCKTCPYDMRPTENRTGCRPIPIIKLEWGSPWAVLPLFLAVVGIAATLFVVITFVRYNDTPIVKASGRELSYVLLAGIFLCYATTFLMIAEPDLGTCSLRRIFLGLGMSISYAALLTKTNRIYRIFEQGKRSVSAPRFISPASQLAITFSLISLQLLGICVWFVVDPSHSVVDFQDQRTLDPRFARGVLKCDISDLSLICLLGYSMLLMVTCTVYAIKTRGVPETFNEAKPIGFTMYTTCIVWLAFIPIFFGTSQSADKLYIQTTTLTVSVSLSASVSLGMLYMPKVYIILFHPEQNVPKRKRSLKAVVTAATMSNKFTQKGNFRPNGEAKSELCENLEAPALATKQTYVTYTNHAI

Turning to `CC(C)N1C(=O)N(c2c(F)cc(C#Cc3ccccc3)cc2F)C(=O)C1C` (racemic) [Example 2, (5RS)-3-[2,6-Difluoro-4-(2-phenylethynyl)phenyl]-1-isopropyl-5-methyl-imidazolidine-2,4-dione], in test [1], the Emax amounted to 107% and the EC50 was found to be 104 nM.
On to `CC1COCC2C(=O)N(c3c(F)cc(C#Cc4ccccc4)cc3F)C(=O)N12` (racemic) [Example 4, (5RS,8aRS)-2-[2,6-Difluoro-4-(2-phenylethynyl)phenyl]-5-methyl-5,6,8,8a-tetrahydroimidazo[5,1-c][1,4]oxazine-1,3-dione], for which, in test [1], the Emax turned out to be 188% and the EC50 turned out to be 204 nM.
On to `O=C1C2Cc3ccccc3N2C(=O)N1c1c(F)cc(C#Cc2ccccc2)cc1F` (racemic) [Example 5, (3aRS)-2-[2,6-Difluoro-4-(2-phenylethynyl)phenyl]-3a,4-dihydroimidazo[1,5-a]indole-1,3-dione], for which, in test [1], the Emax was 103% and the EC50 was determined as 188 nM.
Regarding `O=C1C2CCc3ccccc3N2C(=O)N1c1c(F)cc(C#Cc2ccccc2)cc1F` (racemic) [Example 6, (3aRS)-2-[2,6-Difluoro-4-(2-phenylethynyl)phenyl]-4,5-dihydro-3aH-imidazo[1,5-a]quinoline-1,3-dione], in test [1], the Emax was 110% and the EC50 came out at 74 nM.
Regarding `O=C1C2Cc3ccccc3CN2C(=O)N1c1c(F)cc(C#Cc2ccccc2)cc1F` (racemic) [Example 9, (10aRS)-2-[2,6-Difluoro-4-(2-phenylethynyl)phenyl]-10,10a-dihydro-5H-imidazo[1,5-b]isoquinoline-1,3-dione], in test [1], the Emax was 99% and the EC50 is 56 nM.
As for `CC1CCCC2C(=O)N(c3ccc(C#Cc4ccccc4)cc3Cl)C(=O)N12` (racemic) [Example 10, (5RS,8aRS)-2-[2-Chloro-4-(2-phenylethynyl)phenyl]-5-methyl-6,7,8,8a-tetrahydro-5H-imidazo[1,5-a]pyridine-1,3-dione], in test [1], the Emax is 232% and the EC50 stood at 256 nM.
Regarding `CC1CCCC2C(=O)N(c3c(F)cc(C#Cc4cccnc4)cc3Cl)C(=O)N12` (racemic) [Example 11, (5RS,8aRS)-2-[2-Chloro-6-fluoro-4-[2-(3-pyridyl)ethynyl]phenyl]-5-methyl-6,7,8,8a-tetrahydro-5H-imidazo[1,5-a]pyridine-1,3-dione], in test [1], the Emax was 140% and the EC50 worked out at 180 nM.
Regarding `O=C(Nc1ccccc1)C12CC1/C(=N\O)c1ccccc1O2` (single isomer, unassigned; (-)) [(−)-PHCCC], the nigrostriatal degeneration result in test [2] is “reduced nigrostriatal degeneration”.
As to `Cc1ccnc(Nc2nc(-c3cn[nH]c3)c(C)s2)n1` [ADX88178], the “activity in marble burying test” value in test [3] is “active”. The “activity in EPM” value was “active” in test [4] and “active” in test [5] (rats, reported by Addex 2010). Further, the “profile in rat EPM test” value in test [5] (rat, after oral dosing) is on record as “anxiolytic-like profile”.
In the case of `CC(C)N1CC(=O)N(c2c(F)cc(C#Cc3ccccc3)cc2F)C1=O` [Example 1, 3-[2,6-Difluoro-4-(2-phenylethynyl)phenyl]-1-isopropyl-imidazolidine-2,4-dione], in test [1], the Emax is 154% and the EC50 was determined as 441 nM.
Turning to `CC(C)N1C(=O)N(c2c(F)cc(C#Cc3ccccc3)cc2F)C(=O)C1(C)C` [Example 3, 3-[2,6-Difluoro-4-(2-phenylethynyl)phenyl]-1-isopropyl-5,5-dimethyl-imidazolidine-2,4-dione], in test [1], the Emax was 98% and the EC50 turned out to be 286 nM.
In the case of `CC1(C)C(=O)N(c2c(F)cc(C#Cc3ccccc3)cc2F)C(=O)N1c1ccccc1` [Example 7, 3-[2,6-Difluoro-4-(2-phenylethynyl)phenyl]-5,5-dimethyl-1-phenyl-imidazolidine-2,4-dione], in test [1], the Emax is 222% and the EC50 was determined as 242 nM.
`CC(C)(C)N1CC(=O)N(c2c(F)cc(C#Cc3ccccc3)cc2F)C1=O` [Example 8, 1-tert-Butyl-3-[2,6-difluoro-4-(2-phenylethynyl)phenyl]imidazolidine-2,4-dione]: in test [1], the Emax was determined as 143% and the EC50 came to 222 nM.
For the molecule `O=C1CN(C2CC2)C(=O)N1c1c(F)cc(C#Cc2ccccc2)cc1F` [Example 12, 1-Cyclopropyl-3-[2,6-difluoro-4-(2-phenylethynyl)phenyl]imidazolidine-2,4-dione], in test [1], the Emax was determined as 113% and the EC50 was 370 nM.
The like results for `CC(C)N1C(=O)N(c2c(F)cc(C#Cc3ccccc3)cc2F)C(=O)C12COC2` [Example 13, 7-[2,6-Difluoro-4-(2-phenylethynyl)phenyl]-5-isopropyl-2-oxa-5,7-diazaspiro[3.4]octane-6,8-dione] were, in that order, 100% and 230 nM.
Regarding `N[C@@H](CCP(=O)(O)O)C(=O)O` [L-AP4, (2S)-2-amino-4-phosphonobutanoic acid], in test [6], the neuroprotective effects result is “demonstrated neuroprotective effects”.
